Legend:
[1] = target: Sigma non-opioid intracellular receptor 1 (Rattus norvegicus, UniProt Q9R0C9); test: Binding affinity at sigma receptor by [3H](+)-SKF-10047 displacement.
D(1A) dopamine receptor = D(1A) dopamine receptor (Rattus norvegicus, UniProt P18901); test: Binding affinity at dopamine D1 receptor in rat striatum by [3H][…] displacement.; format: tissue-based
D(2) dopamine receptor = D(2) dopamine receptor (Rattus norvegicus, UniProt P61169); test: Binding affinity at dopamine D2 receptor in rat striatum by [3H]spiperone displacement.; format: tissue-based
Chain of D(2) dopamine receptor (P61169 whole entry): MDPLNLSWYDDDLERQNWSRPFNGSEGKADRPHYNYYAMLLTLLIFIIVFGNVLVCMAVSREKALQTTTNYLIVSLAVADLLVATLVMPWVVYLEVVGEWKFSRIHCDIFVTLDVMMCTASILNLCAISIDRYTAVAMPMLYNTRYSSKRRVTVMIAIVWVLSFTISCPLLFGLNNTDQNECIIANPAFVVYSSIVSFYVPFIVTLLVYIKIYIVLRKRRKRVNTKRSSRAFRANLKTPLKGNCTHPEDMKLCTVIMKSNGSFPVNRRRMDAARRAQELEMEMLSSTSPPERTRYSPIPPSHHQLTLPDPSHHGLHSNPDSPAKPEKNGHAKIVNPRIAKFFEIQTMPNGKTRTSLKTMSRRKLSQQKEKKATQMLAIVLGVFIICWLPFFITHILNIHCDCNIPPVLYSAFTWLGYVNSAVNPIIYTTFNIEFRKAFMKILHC

Chain of D(1A) dopamine receptor (P18901 whole entry): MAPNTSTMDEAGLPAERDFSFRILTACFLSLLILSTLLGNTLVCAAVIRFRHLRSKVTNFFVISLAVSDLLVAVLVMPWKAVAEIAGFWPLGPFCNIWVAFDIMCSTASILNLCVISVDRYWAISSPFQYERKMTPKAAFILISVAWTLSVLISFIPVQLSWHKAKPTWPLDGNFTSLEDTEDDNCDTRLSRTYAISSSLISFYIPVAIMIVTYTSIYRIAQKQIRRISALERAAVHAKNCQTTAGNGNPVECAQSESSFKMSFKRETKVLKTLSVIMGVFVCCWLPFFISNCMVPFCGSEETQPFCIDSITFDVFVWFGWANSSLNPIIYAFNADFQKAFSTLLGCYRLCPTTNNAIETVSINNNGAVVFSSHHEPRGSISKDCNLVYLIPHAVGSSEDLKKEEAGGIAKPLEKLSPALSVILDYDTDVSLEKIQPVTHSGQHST
Chain of Sigma non-opioid intracellular receptor 1 (Q9R0C9 whole entry): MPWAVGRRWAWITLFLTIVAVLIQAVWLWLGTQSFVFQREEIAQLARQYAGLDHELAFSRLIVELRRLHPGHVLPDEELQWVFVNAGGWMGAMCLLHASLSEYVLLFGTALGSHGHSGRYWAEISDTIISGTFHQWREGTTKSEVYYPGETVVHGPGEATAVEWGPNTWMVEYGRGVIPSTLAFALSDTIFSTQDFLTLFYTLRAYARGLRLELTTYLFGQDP

Row | SMILES | IC50 [1] [nM] | IC50 (D(1A) dopamine receptor) [nM] | IC50 (D(2) dopamine receptor) [nM]
1 | O=C1c2ccccc2S(=O)(=O)N1CCCCN1CCCC(/C=C/c2ccccc2)C1 (stereo not drawn) | 23 |  | 
2 | C(=C\C1CCCN(CCc2ccccc2)C1)/c1ccccc1 (stereo not drawn) | 6 | > 10000 | 2400
3 | O=C(CCCN1CCCC(/C=C\c2ccccc2)C1)c1ccccc1 (stereo not drawn) | 15 |  | 
4 | O=C(CN1CCCC(/C=C\c2ccccc2)C1)Nc1ccccc1 (stereo not drawn) | 640 |  | 
5 | C(=C\C1CCCN(C2CCCCC2)C1)/c1ccccc1 (stereo not drawn) | 6 | > 10000 | 5120
6 | C(=C/C1CCCN(CCc2ccccc2)C1)/c1ccccc1 (stereo not drawn) | 0.8 | 630 | 120
7 | C(=C\C1CCCN(CCCOc2ccccc2)C1)/c1ccccc1 (stereo not drawn) | 33 |  | 
8 | C(=C\C1CCCN(CCCc2ccccc2)C1)/c1ccccc1 (stereo not drawn) | 4 | 1550 | 1240
9 | C(=C/C1CCCN(CCCSc2nc3ccccc3s2)C1)/c1ccccc1 (stereo not drawn) | 27 |  | 
10 | C(=C/C1CCCNC1)/c1ccccc1 (stereo not drawn) | 64 | > 10000 | 870
11 | CC(C)=CCN1CCCC(/C=C/c2ccccc2)C1 (stereo not drawn) | 38 | 1330 | 180
12 | C=CCCCN1CCCC(/C=C/c2ccccc2)C1 (stereo not drawn) | 12 |  | 
13 | O=C(NCCCCN1CCCC(/C=C\c2ccccc2)C1)C12C[C@H]3C[C@@H](C1)C[C@@H](C2)C3 (stereo partly drawn) | 23 |  | 
14 | C(=C/C1CCCN(CCCc2ccccc2)C1)/c1ccccc1 (stereo not drawn) | 0.6 | 2200 | 150
15 | C(=C/C1CCCN(CCCOc2ccccc2)C1)/c1ccccc1 (stereo not drawn) | 15 |  | 
16 | C=CCN1CCCC(/C=C/c2ccccc2)C1 (stereo not drawn) | 4 | > 10000 | > 10000
17 | C(=C/C1CCCN(C2CCCCC2)C1)/c1ccccc1 (stereo not drawn) | 2 | > 10000 | 1120
18 | C(=C/C1CCCN(CCC2CCCCC2)C1)/c1ccccc1 (stereo not drawn) | 7 | > 10000 | 5440
19 | C(=C/C1CCCN(CCCCc2ccccc2)C1)/c1ccccc1 (stereo not drawn) | 7 | 5840 | 1440
20 | C(=C\C1CCCN(Cc2ccccc2)C1)/c1ccccc1 (stereo not drawn) | 10 |  | 
21 | CC(C)=CCN1CCCC(/C=C\c2ccccc2)C1 (stereo not drawn) | 1 | 320 | 160
22 | C(=C\C1CCCNC1)/c1ccccc1 (stereo not drawn) | 423 | > 10000 | > 10000

From ChEMBL document CHEMBL1152021, “(E) and (Z)-3-Styrylpiperidines as sigma ligands” (Bioorg Med Chem Lett, 1997)
